Reference: patent publication US10138207B2, “Benzomorphan analogs and the use thereof” (priority 2012, dated 2018)

Columns and labels:
μ-opioid receptor [1] = biological target: T1, μ-opioid receptor (Homo sapiens, UniProt P35372); assay: μ-opioid receptor [35S]GTPγS functional assay, U-2 OS cells; assay type: biochemical; set-up: expressed in transfected cells; host or cells: U-2 OS; settings: for Emax: read-out: GTPγS μ Emax
μ-opioid receptor [2] = biological target: T1, μ-opioid receptor; assay: μ-opioid receptor [35S]GTPγS functional assay, HEK-293 or CHO cells; settings: for Emax: read-out: GTPγS μ Emax
κ opioid receptor [3] = biological target: T2, κ opioid receptor (Homo sapiens, UniProt P41145); assay: κ-opioid receptor [35S]GTPγS functional assay, HEK-293 or CHO cells; assay type: biochemical; set-up: expressed in transfected cells; host or cells: U-2 OS (in-house membranes); settings: for Emax: relative to U69,593
Description: Membranes from recombinant HEK-293 cells, CHO or U-2 OS cells expressing the recombinant human κ opioid receptor (κ) were prepared by lysing cells in ice cold hypotonic buffer (2.5 mM MgCl2, 50 mM HEPES, pH 7.4) (10 mL/10 cm dish) followed by homogenization with a tissue grinder/Teflon pestle. Membranes from a cell line naturally expressing kappa opioid receptors can also be used. Membranes were collected by centrifugation at 30,000×g for 15 min at 4° C. and pellets were resuspended in hypotonic buffer to a final concentration of 1-3 mg/mL. Protein concentrations were determined using the BioRad protein assay reagent with bovine serum albumen as standard. Aliquots of κ receptor membranes were stored at −80° C.
Plates were incubated for 30 min at a temperature of about 25° C. with shaking.

κ opioid receptor [4] = biological target: T2, κ opioid receptor; assay: biochemical; assay type: binding; set-up: expressed in transfected cells; host or cells: HEK 293 (in-house membrane prep); settings: HEK-293 or CHO cells
μ-opioid receptor [5] = biological target: T1, μ-opioid receptor; assay: μ-opioid receptor radioligand dose-displacement binding assay ([3H]-diprenorphine); set-up: expressed in transfected cells; host or cells: HEK-293 or CHO
Description: Radioligand dose-displacement binding assays for μ-opioid receptors used 0.3 nM [^3H]-diprenorphine (Perkin Elmer, Shelton, Conn.), with […] membrane protein/well in a final volume of 500 μl binding buffer (10 mM MgCl2, 1 mM EDTA, 5% DMSO, 50 mM HEPES, pH 7.4). Reactions were carried out in the absence or presence of increasing concentrations of unlabeled naloxone. All reactions were conducted in 96-deep well polypropylene plates for 2 hr at room temperature. […] The data were analyzed using the one-site competition curve fitting functions in GraphPad PRISM™ v. 3.0 or higher (San Diego, Calif.), or an in-house function for one-site competition curve-fitting.

κ opioid receptor [6] = biological target: T2, κ opioid receptor; assay: κ-opioid receptor [35S]GTPγS functional assay, U-2 OS cells; assay type: biochemical; set-up: expressed in transfected cells; host or cells: U-2 OS (in-house membranes); settings: U-2 OS cells
[7] = U-2 OS cells, read-out: GTPγS μ EC50
[8] = U-2 OS cells, relative to DAMGO
[9] = HEK-293 or CHO cells, read-out: GTPγS κ EC50
[10] = HEK-293 or CHO cells, bound in μM, read-out: GTPγS κ EC50

T2 sequence (P41145 whole entry): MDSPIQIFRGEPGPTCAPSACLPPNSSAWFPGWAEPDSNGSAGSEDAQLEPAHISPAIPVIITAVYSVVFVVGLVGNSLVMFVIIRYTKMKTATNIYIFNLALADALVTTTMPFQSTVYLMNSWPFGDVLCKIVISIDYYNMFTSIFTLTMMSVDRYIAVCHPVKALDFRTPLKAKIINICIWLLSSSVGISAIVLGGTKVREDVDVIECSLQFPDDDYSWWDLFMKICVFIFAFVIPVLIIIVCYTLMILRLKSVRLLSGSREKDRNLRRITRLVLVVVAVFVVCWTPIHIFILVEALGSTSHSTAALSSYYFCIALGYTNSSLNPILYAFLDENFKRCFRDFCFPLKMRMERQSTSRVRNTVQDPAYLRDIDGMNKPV
T1 sequence (P35372 whole entry, species assumed): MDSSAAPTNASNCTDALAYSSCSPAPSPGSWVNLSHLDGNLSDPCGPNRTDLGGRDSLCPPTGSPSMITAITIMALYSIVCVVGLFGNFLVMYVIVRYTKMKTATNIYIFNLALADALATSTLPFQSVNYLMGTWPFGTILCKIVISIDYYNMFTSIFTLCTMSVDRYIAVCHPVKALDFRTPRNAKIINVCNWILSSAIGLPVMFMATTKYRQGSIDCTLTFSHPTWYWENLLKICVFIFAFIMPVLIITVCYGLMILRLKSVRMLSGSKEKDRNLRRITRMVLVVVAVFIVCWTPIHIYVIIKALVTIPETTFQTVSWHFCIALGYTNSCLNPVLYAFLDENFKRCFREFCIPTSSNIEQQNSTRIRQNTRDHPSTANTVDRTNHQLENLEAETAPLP

Row | Structure (SMILES) | EC50 (μ-opioid receptor [1]; [7]) [µM] | Emax (μ-opioid receptor [1]; [8]) [%] | EC50 (μ-opioid receptor [2]) [nM] | Emax (μ-opioid receptor [2]) [%] | EC50 (κ opioid receptor [3]; [9]) [µM] | Emax (κ opioid receptor [3]; HEK-293 or CHO cells) [%] | Ki (κ opioid receptor [4]) [µM] | EC50 (κ opioid receptor [3]; [10]) [µM] | Ki (μ-opioid receptor [5]) [nM] | Ki (κ opioid receptor [4]; bound in μM) [µM] | GTPγS μ Emax (μ-opioid receptor [1]; [8]) [%] | EC50 (κ opioid receptor [6]; bound in μM, read-out: GTPγS κ EC50) [µM] | Emax (κ opioid receptor [6]; relative to U69,593, read-out: GTPγS κ Emax) [%] | EC50 (μ-opioid receptor [1]; GTPγS μ EC50, U-2 OS cells) [µM] | EC50 (κ opioid receptor [3]) [µM] | EC50 (μ-opioid receptor [1]; U-2 OS cells, bound in μM, read-out: GTPγS μ EC50) [µM]
1 | CN(C(=O)Nc1ccc(C#N)cc1)C1C2Cc3ccc(O)cc3[C@@]1(C)CCN2CCc1ccccc1 (stereo in doubt) [Compound 87, 3-(4-cyanophenyl)-1-((2R,6R,11S)-8-hydroxy-6-methyl-3-phenethyl-1,2,3,4,5,6-hexahydro-2,6-methanobenzo[d]azocin-11-yl)-1-methylurea] | 0.00208 ± 0.00012 | 99.3 ± 2.03 | 5.29 ± 1.1 | 96.3 ± 2.96 | 0.024 ± 0.00194 | 10.8 ± 1.49 | 0.00121 ± 0.00024 | – | – | – | – | – | – | – | – | –
2 | CN(C(=O)Nc1ccc(C#N)cc1)C1C2Cc3ccc(O)cc3[C@@]1(C)CCN2Cc1ccoc1 (stereo in doubt) [Compound 90, 3-(4-cyanophenyl)-1-((2R,6R,11S)-3-(furan-3-ylmethyl)-8-hydroxy-6-methyl-1,2,3,4,5,6-hexahydro-2,6-methanobenzo[d]azocin-11-yl)-1-methylurea] | 0.00702 ± 0.00189 | 14 ± 1 | 5.92 ± 1.82 | 32.7 ± 5.78 | – | 1 | 0.00174 ± 0.00045 | > 20 | – | – | – | – | – | – | – | –
3 | COc1ccc2c(c1)C1(C)CCN(C)C(C2)C1=NOCC(=O)O (stereo not shown) [Compound 1, 2-(((8-methoxy-3,6-dimethyl-1,2,3,4,5,6-hexahydro-2,6-methanobenzo[d]azocin-11-ylidene)amino)oxy)acetic Acid] | – | – | – | – | – | – | 12.1 | – | > 20000 | – | – | – | – | – | – | –
4 | COc1ccc2c(c1)C1(C)CCN(C)C(C2)C1=NO (stereo not shown) [Compound 2, 8-methoxy-3,6-dimethyl-1,2,3,4,5,6-hexahydro-2,6-methanobenzo[d]azocin-11-one Oxime] | – | – | – | – | – | – | 2.58 ± 0.122 | – | > 20000 | – | – | – | – | – | – | –
5 | COc1ccc2c(c1)[C@@]1(C)CCN(C)C(C2)[C@@H]1OCC(N)=O [Compound 3, 2-(((6R,11R)-8-methoxy-3,6-dimethyl-1,2,3,4,5,6-hexahydro-2,6-methanobenzo[d]azocin-11-yl)oxy)acetamide] | – | – | – | – | – | – | – | – | > 20000 | > 20 | – | – | – | – | – | –
6 | CN1CC[C@@]2(C)c3cc(O)ccc3C[C@@H]1[C@@H]2NCC1CCN(C(=O)OC(C)(C)C)CC1 [Compound 30, tert-butyl 4-((((2R,6S,11R)-8-hydroxy-3,6-dimethyl-1,2,3,4,5,6-hexahydro-2,6-methanobenzo[d]azocin-11-yl)amino)methyl)piperidine-1-carboxylate] | 0.0336 ± 0.00817 | – | 270 ± 33.9 | 49.7 ± 3.67 | – | 0.33 ± 0.67 | 0.00766 ± 0.00196 | > 20 | – | – | 91.70 ± 4.33 | – | – | – | – | –
7 | CN1CC[C@@]2(C)c3cc(O)ccc3C[C@@H]1[C@@H]2N(C)CC1CCN(C(=O)OC(C)(C)C)CC1 [Compound 31, tert-butyl 4-((((2R,6S,11R)-8-hydroxy-3,6-dimethyl-1,2,3,4,5,6-hexahydro-2,6-methanobenzo[d]azocin-11-yl)(methyl)amino)methyl)piperidine-1-carboxylate] | 0.00041 ± 0.00038 | 94.3 ± 3.18 | 12.3 ± 0.95 | 61 ± 3 | – | 1 | 0.00034 ± 9e-05 | > 20 | – | – | – | – | – | – | – | –
8 | CN1CC[C@]2(C)c3cc(O)ccc3C[C@@H]1[C@@H]2N(C)C(=O)c1ccccc1 [Compound 39, N-((2R,6R,11R)-8-hydroxy-3,6-dimethyl-1,2,3,4,5,6-hexahydro-2,6-methanobenzo[d]azocin-11-yl)-N-methylbenzamide] | 0.0183 ± 0.00122 | 101 ± 3.76 | 321 ± 22.2 | 89.8 ± 5.39 | – | -1 | 0.082 ± 0.0104 | > 20 | – | – | – | – | – | – | – | –
9 | CN1CC[C@]2(C)c3cc(O)ccc3C[C@@H]1[C@H]2Nc1ccc(CCS(N)(=O)=O)cc1 [Compound 50, 2-(4-(((2R,6R,11S)-8-hydroxy-3,6-dimethyl-1,2,3,4,5,6-hexahydro-2,6-methanobenzo[d]azocin-11-yl)amino)phenyl)ethanesulfonamide] | 0.042 ± 0.0109 | 86.5 ± 4.14 | 189 ± 13.7 | 93.8 ± 2.17 | – | – | 0.0583 ± 0.0101 | > 20 | – | – | – | > 20 | 9.78 ± 2.97 | – | – | –
10 | COc1ccc2c(c1)[C@@]1(C)CCN(C)C(C2)[C@@H]1CNC(=O)Cc1ccc(Cl)c(Cl)c1 [Compound 75, 2-(3,4-dichlorophenyl)-N-(((6S,11S)-8-methoxy-3,6-dimethyl-1,2,3,4,5,6-hexahydro-2,6-methanobenzo[d]azocin-11-yl)methyl)acetamide] | – | 104 ± 2.67 | 62.3 ± 13.7 | 112 ± 2.4 | – | 0.33 ± 0.67 | 0.185 ± 0.0513 | – | – | – | – | – | – | 0.0127 ± 0.00152 | > 20 | –
11 | CN(C(=O)/C=C/c1ccoc1)[C@@H]1[C@H]2Cc3ccc(O)cc3[C@@]1(C)CCN2CC1CC1 [Compound 77, (E)-N-((2R,6R,11S)-3-(cyclopropylmethyl)-8-hydroxy-6-methyl-1,2,3,4,5,6-hexahydro-2,6-methanobenzo[d]azocin-11-yl)-3-(furan-3-yl)-N-methylacrylamide] | – | 77.7 ± 0.88 | 144 ± 11 | 56.5 ± 2.02 | – | -1 | 0.0043 ± 0.00091 | – | – | – | – | – | – | 0.029 ± 0.00086 | > 20 | –
12 | CN(C(=O)Nc1ccc(C#N)cc1)[C@H]1C2Cc3ccc(O)cc3[C@@]1(C)CCN2CC1CC1 [Compound 80, 3-(4-cyanophenyl)-1-((6R,11R)-3-(cyclopropylmethyl)-8-hydroxy-6-methyl-1,2,3,4,5,6-hexahydro-2,6-methanobenzo[d]azocin-11-yl)-1-methylurea] | 0.0002 ± 1.3e-05 | 113 ± 3.53 | 216 ± 38.7 | 92.4 ± 3.23 | – | – | 0.00119 ± 0.00032 | > 20 | – | – | – | – | – | – | – | –
13 | CN(C(=O)Nc1ccc(C#N)cc1)[C@H]1C2Cc3ccc(O)cc3[C@@]1(C)CCN2CC1CCC1 [Compound 88, 3-(4-cyanophenyl)-1-((6R,11R)-3-(cyclobutylmethyl)-8-hydroxy-6-methyl-1,2,3,4,5,6-hexahydro-2,6-methanobenzo[d]azocin-11-yl)-1-methylurea] | 0.00167 ± 0.00016 | 85.7 ± 2.33 | 7.58 ± 1.06 | 74.7 ± 1.86 | 0.0247 ± 0.00535 | 18.5 ± 2.84 | 0.00474 ± 0.00155 | – | – | – | – | – | – | – | – | –
14 | CN(C(=O)Nc1ccc(C#N)cc1)[C@H]1C2Cc3ccc(O)cc3[C@@]1(C)CCN2Cc1cccc(F)c1F [Compound 89, 3-(4-cyanophenyl)-1-((6R,11R)-3-(2,3-difluorobenzyl)-8-hydroxy-6-methyl-1,2,3,4,5,6-hexahydro-2,6-methanobenzo[d]azocin-11-yl)-1-methylurea] | – | 1.17 ± 1.01 | > 20000 | – | – | – | 0.0092 ± 0.0009 | > 20 | – | – | – | – | – | – | – | > 20
15 | CN1CC[C@]2(C)c3cc(O)ccc3CC1[C@@H]2N1Cc2ccccc2NC1=O [Compound 91] | 0.378 ± 0.0619 | 71.3 ± 3.53 | 409 ± 19.5 | 89.7 ± 5.9 | 2.81 ± 0.129 | 34.7 ± 5.93 | 0.174 ± 0.0257 | – | – | – | – | – | – | – | – | –
